Assay [1] relates to Haemaphysalis longicornis (non-blood-fed young ticks). The assay can be described thus: Pesticidal activity on ticks, dry film contact application test. The assay is classed as in vivo. The note with it: 48 h, 16 μg as dry film on inner surface of 20 mL screw bottle, 2 days later, read-out: Mortality. Here is the method: Any one of the present benzylamide compounds (12), (13), (15), (28), (29), (30), (31), (32), (33), (34), (37) and (38) (16 μg) was dissolved in acetone (0.2 mL), and into a screw bottle (20 mL volume) this solution was dropwised and capped the bottle. Then the capped-bottle was made rolling so that the inner-surface of the screw bottle was uniformly coated with the solution. The acrew bottle was capped off and allowed to dry up for 2 hours. Into the screw bottle, test ticks (Haemaphysalis longicornis, non-blood-fed young ticks, 10 ticks/group) were added, and capped the bottle. Two (2) days later, the number of dead ticks was examined and the mortality was calculated by the following formula:
Mortality (%)=100×(number of dead ticks/number of ticks tested)

Assay [2] relates to Haemaphysalis longicornis (young ticks) on mouse. The assay can be described thus: Dropping application against mouse-infested ticks. The assay is classed as in vivo. The note with it: topical, 48 h, 0.1% w/v solution, 200 μL dropwise to whole body surface of mouse, 2 days after application, read-out: Mortality. Here is the method:
The previous day of a dropping application, 30 test ticks (Haemaphysalis longicornis, young ticks) were deposited on a mouse. Before the dropping application, uninfested ticks were removed.
Any one of the present benzylamide compounds (12), (13), (15), (28), (29), (30), (31), (32), (33), (34), (36), (37) and (38) (5 mg) was dissolved in a mixture (5 mL) of propylene carbonate and diethylene glycol monoethyl ether in equal volume to prepare a 0.1% w/v solution. Said solution (200 μL) was applied dropwise to the whole body surface of a mouse with a pipette. To a control group, the mixture (200 μL) alone was applied. Said application was repeated 3 times per group.
Two (2) days after the application, the number of dead ticks was examined and the mortality was calculated by the following formula:
Mortality (%)=100×(number of dead ticks/infested ticks before dropping application)

A value given as a limit tells only on which side of the number the result lay.

As to `CC(=O)NCc1cc(C2=NOC(c3cc(Cl)cc(Cl)c3)(C(F)(F)F)C2)ccc1Cl` (stereo not shown) [(28), N-{2-chloro-[5-(3,5-dichlorophenyl)-5-trifluoromethyl-4,5-dihydroisoxazol-3-yl]benzyl}acetamide], the mortality – broadly, the percentage killed – at 16 µg/bottle in assay [1] is not below 90%. For the same compound, the pest or weed control at 0.1 % strength in assay [2] was not below 60%. In the case of `CC(C)C(=O)NCc1cc(C2=NOC(c3cc(Cl)cc(Cl)c3)(C(F)(F)F)C2)ccc1Cl` (stereo not shown) [(31), N-{2-chloro-[5-(3,5-dichlorophenyl)-5-trifluoromethyl-4,5-dihydroisoxazol-3-yl]benzyl}isobutyramide], the mortality at 16 µg/bottle in assay [1] is not below 90%. Moreover, the pest or weed control at 0.1 % strength in assay [2] is not below 60%. Take `O=C(NCc1cc(C2=NOC(c3cc(Cl)cc(Cl)c3)(C(F)(F)F)C2)ccc1Cl)C(F)(F)F` (stereo not shown) [(36), N-{2-chloro-[5-(3,5-dichlorophenyl)-5-trifluoromethyl-4,5-dihydroisoxazol-3-yl]benzyl}trifluoroacetamide]: the pest or weed control at 0.1 % strength in assay [2] was not below 60%. Regarding `CC(C)CC(=O)NCc1cc(C2=NOC(c3cc(Cl)cc(Cl)c3)(C(F)(F)F)C2)ccc1Cl` (stereo not shown) [(33), N-{2-chloro-[5-(3,5-dichlorophenyl)-5-trifluoromethyl-4,5-dihydroisoxazol-3-yl]benzyl}isovaleramide], in assay [1], the mortality at 16 µg/bottle was not below 90%. In addition, the pest or weed control at 0.1 % strength in assay [2] was not below 60%. For `COCC(=O)NCc1cc(C2=NOC(c3cc(Cl)cc(Cl)c3)(C(F)(F)F)C2)ccc1Cl` (stereo not shown) [(30), N-{2-chloro-[5-(3,5-dichlorophenyl)-5-trifluoromethyl-4,5-dihydroisoxazol-3-yl]benzyl}methoxyacetamide] the same measures were not below 90% and not below 60%.

As for `O=C(CCC(F)(F)F)NCc1cc(C2=NOC(c3cc(Cl)cc(Cl)c3)(C(F)(F)F)C2)ccc1Cl` (stereo not shown) [(29), N-{2-chloro-[5-(3,5-dichlorophenyl)-5-trifluoromethyl-4,5-dihydroisoxazol-3-yl]benzyl}-4,4,4-trifluorobutanamide], the mortality at 16 µg/bottle in assay [1] is not below 90%. In addition, the pest or weed control at 0.1 % strength in assay [2] was not below 60%. For `N#CCC(=O)NCc1cc(C2=NOC(c3cc(Cl)cc(Cl)c3)(C(F)(F)F)C2)ccc1Cl` (stereo not shown) [(34), N-{2-chloro-[5-(3,5-dichlorophenyl)-5-trifluoromethyl-4,5-dihydroisoxazol-3-yl]benzyl}cyanoacetamide] the same measures were not below 90% and not below 60%.

With `O=C(NCc1cc(C2=NOC(c3cc(Cl)cc(Cl)c3)(C(F)(F)F)C2)ccc1Cl)C1CCC1` (stereo not shown) [(37), N-{2-chloro-[5-(3,5-dichlorophenyl)-5-trifluoromethyl-4,5-dihydroisoxazol-3-yl]benzyl}cyclobutanecarboxamide], the mortality at 16 µg/bottle in assay [1] was not below 90%. In assay [2], the pest or weed control at 0.1 % strength was not below 60%. For `O=C(NCc1cc(C2=NOC(c3cc(Cl)cc(Cl)c3)(C(F)(F)F)C2)ccc1Cl)C1CCCC1` (stereo not shown) [(38), N-{2-chloro-[5-(3,5-dichlorophenyl)-5-trifluoromethyl-4,5-dihydroisoxazol-3-yl]benzyl}cyclopentanecarboxamide] the same measures were not below 90% and not below 60%. For `CCCC(=O)NCc1cc(C2=NOC(c3cc(Cl)cc(Cl)c3)(C(F)(F)F)C2)ccc1Cl` (stereo not shown) [(32)] the same measures were not below 90% and not below 60%.
